We go through four compounds from PubChem BioAssay AID1259411 (Chemical Carcinogenesis Research Information System (CCRIS), 2018).

Activity calls are given as the source filed them. No rule for the calls is given here.

The subject of the data set is rodent carcinogenicity bioassays, tumor incidence. Briefly: CCRIS carcinogenicity studies. The gist of the method:
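NCI-built, expert-reviewed records of carcinogenicity and related test outcomes (mutagenicity, tumor promotion/inhibition) compiled from published and report sources, historical span 1985-2011, not updated.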

Turning to `[O-][Br+2]([O-])O`, the carcinogen call (Species: Hamster, Strain/Sex: Syrian golden/Male (20/group), Route: Oral, Dose: 0, 125, 250, 500, 2000 ppm in drinking water for 89 wk, study duration 89 wk, Dose: 0, 125, 250, 500, 2000 ppm in drinking water for 89 wk, study duration 89 wk, Tumor Site: Type of Lesion: Kidney: Renal adenoma (0/20, 0/20, 1/20, 2/20, 4/20)) was “active; positive”; the carcinogen call (Species: Mouse, Strain/Sex: B6C3F1, BDF1, and CDF1/Male (27/experimental group, 15/control group), Route: Oral, Dose: 0, 750 ppm in drinking water for 88 wk, study duration 88 wk, Tumor Site: Type of Lesion: Kidney: Renal adenoma and carcinoma - B6C3F1: 0/15 (controls), 3/26 (750 ppm), BDF1: 0/15 (controls),1/27 (750 ppm), CDF, Tumor Site: Type of Lesion: Kidney: Renal adenoma and carcinoma - B6C3F1: 0/15 (controls), 3/26 (750 ppm), BDF1: 0/15 (controls),1/27 (750 ppm), CDF) is “active; positive”; the carcinogen call (Species: Mouse, Strain/Sex: B6C3F1/Female (25/ group), Route: Oral, Dose: 0, 500, 1000 ppm in drinking water for 78 wk, followed by tap water for 26 wk, study duration 104 wk, Dose: 0, 500, 1000 ppm in drinking water for 78 wk, followed by tap water for 26 wk, study duration 104 wk) is “inactive; negative”; the carcinogen call (Species: Mouse, Strain/Sex: Ogg1 wild type/Female (15/15)/(13/15), Route: Oral, Dose: 2 g/l in drinking water for 18 wk followed by 1 g/l in drinking water for 11 wk (Study duration: 52 wk)) is “inactive; negative (kidney, liver, lung, spleen, thymus, stomach, and intestine examined);”; the carcinogen call (Species: Mouse, Strain/Sex: Ogg1 wild type/Male (13/15)/(15/15), Route: Oral, Dose: 2 g/l in drinking water for 18 wk followed by 1 g/l in drinking water for 11 wk (Study duration: 52 wk)) is “inactive; negative (kidney, liver, lung, spleen, thymus, stomach and intestine examined);”; the carcinogen call (Species: RAT, Strain/Sex: F344/FEMALE, Route: ORAL, Dose: 250, 500 PPM IN DRINKING WATER FOR 110 WK, Tumor Site: Type of Lesion: KIDNEY: RENAL CELL ADENOMA, RENAL CELL ADENOCARCINOMA) was “active; positive”. In addition, the carcinogen call was “active; positive” (Species: RAT, Strain/Sex: F344/MALE, Route: ORAL, Dose: 0, 0.02, 0.1, 0.2, 0.4 G/L IN DRINKING WATER FOR 52, 78, OR 100 WK (STUDY DURATION: 100 WK), Dose: 0, 0.02, 0.1, 0.2, 0.4 G/L IN DRINKING WATER FOR 52, 78, OR 100 WK (STUDY DURATION: 100 WK), Tumor Site: Type of Lesion: TESTICLE: MESOTHELIOMA, KIDNEY: RENAL CELL TUMOR, THYROID: TUMOR, Tumor Site: Type of Lesion: TESTICLE: MESOTHELIOMA, KIDNEY: RENAL CELL TUMOR, THYROID: TUMOR); “active; positive” (Species: RAT, Strain/Sex: F344/MALE, Route: ORAL, Dose: 250, 500 PPM IN DRINKING WATER (HIGH DOSE REDUCED TO 400 PPM AT WK 60), Tumor Site: Type of Lesion: KIDNEY: RENAL CELL ADENOMA, RENAL CELL ADENOCARCINOMA, PERITONEAL CAVITY: MESOTHELIOMA); “active; positive” (Species: Rat, Strain/Sex: F344 (20-41/group), Route: Oral, Dose: 0, 300, 600 mg/kg single intragastric administration, study duration 87 wk, Dose: 0, 300, 600 mg/kg single intragastric administration, study duration 87 wk, Tumor Site: Type of Lesion: Kidney: Renal adenoma and carcinoma (0/20, 0/20, 4/41)); “active; positive” (Species: Rat, Strain/Sex: F344/Male (14-20/group), Route: Oral, Dose: 500 ppm in drinking water for 13, 26, 39, and 52 wk followed by drinking water for a study duration of 104 wk, Tumor Site: Type of Lesion: Kidney: Adenoma (10/20, 9/19,13/19, 8/14), Adenocarcinoma (2/20, 1/19, 6/19, 3/14). Peritoneum: Mesothelioma (6/20, 8/19); “active; positive” (Species: Rat, Strain/Sex: F344/Male (20-24/group), Route: Oral, Dose: 0, 15, 30, 60, 125, 250, 500 ppm in drinking water for 104 wk, Dose: 0, 15, 30, 60, 125, 250, 500 ppm in drinking water for 104 wk, Tumor Site: Type of Lesion: Kidney: Renal adenoma (0/19, 0/19, 0/20, 1/24, 5/24, 5/20, 6/20) and adenocarcinoma (0/19, 0/19, 0/20, 0/24, 0/24, 0/20); “inactive; negative” (Species: Rat, Strain/Sex: Fischer 344/Female (50/group), Route: Oral, Dose: 0, 10, 30, 50 mg/kg/day by gavage once daily for 104 wk, Dose: 0, 10, 30, 50 mg/kg/day by gavage once daily for 104 wk). Moreover, the carcinogen call (Species: Rat, Strain/Sex: Fischer 344/Male (50/group), Route: Oral, Dose: 0, 10, 30, 50 mg/kg/day by gavage once daily for 104 wk, Dose: 0, 10, 30, 50 mg/kg/day by gavage once daily for 104 wk) is “inactive; negative”.

Regarding `O[C@H]1C=Cc2c(ccc3c2-c2cccc4cccc-3c24)[C@@H]1O`, the carcinogen call was “active; positive” (Species: MOUSE, Strain/Sex: CD-1/FEMALE, Route: INTRAPERITONEAL, Dose: 0, 0.275, 1.1 UMOL (TOTAL DOSE) ADMINISTERED OVER DAYS 1, 8, AND 15 OF LIFE (STUDY DURATION: 52 WEEKS), Dose: 0, 0.275, 1.1 UMOL (TOTAL DOSE) ADMINISTERED OVER DAYS 1, 8, AND 15 OF LIFE (STUDY DURATION: 52 WEEKS), Tumor Site: Type of Lesion: LUNG: ALVEOLAR/BRONCHIOLAR CARCINOMA) and “active; positive” (Species: MOUSE, Strain/Sex: CD-1/MALE, Route: INTRAPERITONEAL, Dose: 0, 0.275, 1.1 UMOL(TOTAL DOSE) ADMINISTERED OVER DAYS 1, 8, AND 15 OF LIFE (STUDY DURATION: 52 WEEKS), Dose: 0, 0.275, 1.1 UMOL(TOTAL DOSE) ADMINISTERED OVER DAYS 1, 8, AND 15 OF LIFE (STUDY DURATION: 52 WEEKS), Tumor Site: Type of Lesion: LUNG: ALVEOLAR/BRONCHIOLAR CARCINOMA, LIVER: ADENOMA OR CARCINOMA).

Take `Cn1cc(C(=O)O)c(=O)c2ccc(/C=C/c3ccc([N+](=O)[O-])o3)nc21`: for the setting “Species: MOUSE, Strain/Sex: ICR/MALE, Route: ORAL, Dose: 0, 0.012% IN DIET FOR 14 WK (STUDY DURATION: 53 WK), Tumor Site: Type of Lesion: FORESTOMACH: SQUAMOUS CELL CARCINOMA, SQUAMOUS CELL PAPILLOMA, LUNG: PAPILLARY ADENOCARCINOMA”, the carcinogen call is “active; positive”.

Turning to `CNN`, the carcinogen call reads like this: (Species: DOG, Strain/Sex: BEAGLE/FEMALE, Route: INHALATION, Dose: 0, 0.2, 2 PPM 6 HR/D 5 D/WK FOR 1 YR (STUDY DURATION: 6 YR), Dose: 0, 0.2, 2 PPM 6 HR/D 5 D/WK FOR 1 YR (STUDY DURATION: 6 YR)) “inactive; negative”; (Species: DOG, Strain/Sex: BEAGLE/MALE, Route: INHALATION, Dose: 0, 0.2, 2 PPM 6 HR/D 5 D/WK FOR 1 YR (STUDY DURATION: 6 YR), Dose: 0, 0.2, 2 PPM 6 HR/D 5 D/WK FOR 1 YR (STUDY DURATION: 6 YR)) “inactive; negative”; (Species: HAMSTER, Route: ORAL, Tumor Site: Type of Lesion: LIVER) “active; positive”; (Species: HAMSTER, Strain/Sex: SYRIAN/MALE, Route: INHALATION, Dose: 0, 0.2, 2, 5 PPM 6 HR/D 5 D/WK FOR 1 YR (STUDY DURATION: 1 YR), Dose: 0, 0.2, 2, 5 PPM 6 HR/D 5 D/WK FOR 1 YR (STUDY DURATION: 1 YR), Tumor Site: Type of Lesion: NASAL CAVITY: ADENOMA) “active; positive”; (Species: MOUSE, Route: ORAL, Tumor Site: Type of Lesion: LUNG) “active; positive”; (Species: MOUSE, Strain/Sex: C57BL/FEMALE, Route: INHALATION, Dose: 0, 0.02, 0.2, 2, 5 PPM 6 HR/D 5 D/WK FOR 1 YR (STUDY DURATION: 2 YR), Dose: 0, 0.02, 0.2, 2, 5 PPM 6 HR/D 5 D/WK FOR 1 YR (STUDY DURATION: 2 YR), Tumor Site: Type of Lesion: LUNG: ADENOMA, LIVER: ADENOMA, CARCINOMA, HEMATOPOIETIC SYSTEM: HEMANGIOMA, Tumor Site: Type of Lesion: LUNG: ADENOMA, LIVER: ADENOMA, CARCINOMA, HEMATOPOIETIC SYSTEM: HEMANGIOMA) “active; positive”. In addition, the carcinogen call (Species: MOUSE, Strain/Sex: SWISS/FEMALE, Route: ORAL, Dose: 0.001% SOLUTION IN DRINKING WATER FOR LIFE (DAILY INTAKE: 0.078 MG) (STUDY DURATION: LIFETIME), Tumor Site: Type of Lesion: LUNG: ADENOMA, ADENOCARCINOMA, HEMATOPOIETIC SYSTEM: MALIGNANT LYMPHOMA, MAMMARY GLAND: ADENOCARCINOMA, Tumor Site: Type of Lesion: LUNG: ADENOMA, ADENOCARCINOMA, HEMATOPOIETIC SYSTEM: MALIGNANT LYMPHOMA, MAMMARY GLAND: ADENOCARCINOMA) is “active; positive”; the carcinogen call (Species: MOUSE, Strain/Sex: SWISS/MALE, Route: ORAL, Dose: 0.001% SOLUTION IN DRINKING WATER FOR LIFE (DAILY INTAKE: 0.102 MG) (STUDY DURATION: LIFETIME), Tumor Site: Type of Lesion: LUNG: ADENOMA, ADENOCARCINOMA, HEMATOPOIETIC SYSTEM: MALIGNANT LYMPHOMA) was “active; positive”; the carcinogen call (Species: RAT, Strain/Sex: F344/FEMALE, Route: INHALATION, Dose: 0, 0.02, 0.2, 2, 5 PPM 6 HR/D 5 D/WK FOR 1 YR (STUDY DURATION: 2 YR), Dose: 0, 0.02, 0.2, 2, 5 PPM 6 HR/D 5 D/WK FOR 1 YR (STUDY DURATION: 2 YR)) is “inactive; negative”; the carcinogen call (Species: RAT, Strain/Sex: F344/MALE, Route: INHALATION, Dose: 0, 0.02, 0.2, 2, 5 PPM 6 HR/D 5 D/WK FOR 1 YR (STUDY DURATION: 2 YR), Dose: 0, 0.02, 0.2, 2, 5 PPM 6 HR/D 5 D/WK FOR 1 YR (STUDY DURATION: 2 YR)) was “inactive; negative”.
